Like-named read-outs stand apart in the source and are kept apart here.
Experiments:
BRD4 BD1 = target: T1, BRD4 BD1 (Homo sapiens, UniProt O60885); experiment: AlphaScreen binding assay, BRD4 Bromodomain 1
T1 construct: made in house
How it was run: (§1)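 An AlphaScreen competition format was used with His-BRD4 BD1 or BD2 and biotin-H4 K5/8/12/16-acetyl peptide, each at matched final levels of 50 nM (BD1) or 100 nM (BD2). Incubation in HEPES/NaCl buffer with 0.1% BSA and 0.01% Triton X-100 ran ≥1 h before IC50 determination.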

BRD4 BD2 = target: T2, BRD4 BD2 (Homo sapiens, UniProt O60885); experiment: AlphaScreen binding assay, BRD4 Bromodomain 2
T2 construct: made in house
How it was run: as §1

MV4-11 cells = experiment: Oncology cell growth assay (3-day proliferation, CellTiter-Glo); format: cell-based; conditions: Homo sapiens, AML cell line MV4-11, 72 hours, compounds grouped by IC50 range, read-out: MV4-11 IC50 (inhibition of proliferation, gIC50)
How it was run: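 Luminescence from CellTiter-Glo served as the growth read-out after MV4-11 cells (3000/well) were cultured with compound for 72 hours. Final concentrations spanned 10 to 0.0045 μM in 3-fold steps. gIC50 values were derived by four-parameter logistic fitting relative to DMSO and cell-free controls.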

Row | IC50 (BRD4 BD1) | IC50 (BRD4 BD2) | IC50 (MV4-11 cells; MV4-11, 72 h) | Structure (SMILES) | IC50 (MV4-11 cells)
1 | 100 to 1000 nM | 50 to 500 nM | 100 to 500 nM | CC(=O)N1c2ccc(-c3cnn(C4CS(=O)(=O)C4)c3)cc2N(C(=O)OC2CCC2)C[C@@H]1C [Example I-98, cyclobutyl (3S)-4-acetyl-7-[1-(1,1-dioxo-1λ^6-thietan-3-yl)-1H-pyrazol-4-yl]-3-methyl-1,2,3,4-tetrahydroquinoxaline-1-carboxylate] | –
2 | > 10000 nM | 50 to 500 nM | > 500 nM | CC(=O)N1c2ccc(-c3cnn(C4COC4)c3)cc2N(C(=O)C2(C)CC2)C[C@@H]1C [Example I-114, (S)-1-(2-methyl-4-(1-methylcyclopropanecarbonyl)-6-(1-(oxetan-3-yl)-1H-pyrazol-4-yl)-3,4-dihydroquinoxalin-1(2H)-yl)ethanone] | –
3 | 100 to 1000 nM | 50 to 500 nM | 100 to 500 nM | CC(=O)N1c2ccc(-c3cnn(Cc4cnccn4)c3)cc2N(C(=O)OC(C)C)C[C@@H]1C [Example I-116, (S)-isopropyl 4-acetyl-3-methyl-7-(1-(pyrazin-2-ylmethyl)-1H-pyrazol-4-yl)-3,4-dihydroquinoxaline-1(2H)-carboxylate] | –
4 | 100 to 1000 nM | 50 to 500 nM | 100 to 500 nM | CC(=O)N1c2ccc(-c3cnn(Cc4ccncc4)c3)cc2N(C(=O)OC(C)C)C[C@@H]1C [Example I-117, (S)-isopropyl 4-acetyl-3-methyl-7-(1-(pyridin-4-ylmethyl)-1H-pyrazol-4-yl)-3,4-dihydroquinoxaline-1(2H)-carboxylate] | –
5 | 1000 to 10000 nM | 50 to 500 nM | > 500 nM | CC(=O)N1c2ccc(-c3cnn(Cc4cnccn4)c3)cc2N(C(=O)C2CC2)C[C@@H]1C [Example I-123, (S)-1-(4-(cyclopropanecarbonyl)-2-methyl-6-(1-(pyrazin-2-ylmethyl)-1H-pyrazol-4-yl)-3,4-dihydroquinoxalin-1(2H)-yl)ethanone] | –
6 | 1000 to 10000 nM | < 50 nM | 100 to 500 nM | CC(=O)N1c2ccc(-c3cnn(CC4(C)COC4)c3)cc2N(C(=O)C2CC2)C[C@@H]1C [Example I-124, (S)-1-(4-(cyclopropanecarbonyl)-2-methyl-6-(1-((3-methyloxetan-3-yl)methyl)-1H-pyrazol-4-yl)-3,4-dihydroquinoxalin-1(2H)-yl)ethanone] | –
7 | 100 to 1000 nM | 50 to 500 nM | > 500 nM | CC(=O)N1c2ccc(-c3cnn(CC(=O)O)c3)cc2N(C(=O)OC(C)C)C[C@@H]1C [Example I-130, (S)-2-(4-(1-acetyl-4-(isopropoxycarbonyl)-2-methyl-1,2,3,4-tetrahydroquinoxalin-6-yl)-1H-pyrazol-1-yl)acetic acid] | –
8 | 100 to 1000 nM | 50 to 500 nM | > 500 nM | CNC(=O)Cn1cc(-c2ccc3c(c2)N(C(=O)OC(C)C)C[C@H](C)N3C(C)=O)cn1 [Example I-134, (S)-isopropyl 4-acetyl-3-methyl-7-(1-(2-(methylamino)-2-oxoethyl)-1H-pyrazol-4-yl)-3,4-dihydroquinoxaline-1(2H)-carboxylate] | –

Second part, the molecule before the results:

Row | Structure (SMILES) | IC50 (BRD4 BD1) | IC50 (BRD4 BD2) | IC50 (MV4-11 cells; MV4-11, 72 h) | IC50 (MV4-11 cells)
9 | CC(=O)N1c2ccc(-c3ccc(C(=O)N4CCNCC4)cc3)cc2N(C(=O)Oc2ccccc2)C[C@@H]1C [Example I-99, phenyl (S)-4-acetyl-3-methyl-7-(4-(piperazine-1-carbonyl)phenyl)-3,4-dihydroquinoxaline-1(2H)-carboxylate] | < 100 nM | < 50 nM | – | < 100 nM
10 | CC(=O)N1c2ccc(-c3cnn(Cc4cccnc4)c3)cc2N(C(=O)OC(C)C)C[C@@H]1C [Example I-119, (S)-isopropyl 4-acetyl-3-methyl-7-(1-(pyridin-3-ylmethyl)-1H-pyrazol-4-yl)-3,4-dihydroquinoxaline-1(2H)-carboxylate] | 100 to 1000 nM | < 50 nM | 100 to 500 nM | –
11 | CC(=O)N1c2ccc(-c3cnn(Cc4ccccn4)c3)cc2N(C(=O)OC(C)C)C[C@@H]1C [Example I-120, (S)-isopropyl 4-acetyl-3-methyl-7-(1-(pyridin-2-ylmethyl)-1H-pyrazol-4-yl)-3,4-dihydroquinoxaline-1(2H)-carboxylate] | 100 to 1000 nM | < 50 nM | 100 to 500 nM | –
12 | CC(=O)N1c2ccc(-c3cnn(Cc4ccccn4)c3)cc2N(C(=O)C2CC2)C[C@@H]1C [Example I-121, (S)-1-(4-(cyclopropanecarbonyl)-2-methyl-6-(1-(pyridin-2-ylmethyl)-1H-pyrazol-4-yl)-3,4-dihydroquinoxalin-1(2H)-yl)ethanone] | 100 to 1000 nM | < 50 nM | 100 to 500 nM | –
13 | CC(=O)N1c2ccc(-c3cnn(Cc4cccnc4)c3)cc2N(C(=O)C2CC2)C[C@@H]1C [Example I-122, (S)-1-(4-(cyclopropanecarbonyl)-2-methyl-6-(1-(pyridin-3-ylmethyl)-1H-pyrazol-4-yl)-3,4-dihydroquinoxalin-1(2H)-yl)ethan-1-one] | 100 to 1000 nM | < 50 nM | 100 to 500 nM | –
14 | CC(=O)N1c2ccc(-c3cnn(Cc4ncccn4)c3)cc2N(C(=O)C2CC2)C[C@@H]1C [Example I-126, (S)-1-(4-(cyclopropanecarbonyl)-2-methyl-6-(1-(pyrimidin-2-ylmethyl)-1H-pyrazol-4-yl)-3,4-dihydroquinoxalin-1(2H)-yl)ethanone] | 1000 to 10000 nM | < 50 nM | > 500 nM | –
15 | CC(=O)N1c2ccc(-c3cnn(Cc4c[nH]cn4)c3)cc2N(C(=O)C2CC2)C[C@@H]1C [Example I-127, (S)-1-(6-(1-((1H-imidazol-4-yl)methyl)-1H-pyrazol-4-yl)-4-(cyclopropanecarbonyl)-2-methyl-3,4-dihydroquinoxalin-1(2H)-yl)ethanone] | 100 to 1000 nM | < 50 nM | > 500 nM | –
16 | CC(=O)N1c2ccc(-c3cnn(Cc4cncnc4)c3)cc2N(C(=O)C2CC2)C[C@@H]1C [Example I-128, (S)-1-(4-(cyclopropanecarbonyl)-2-methyl-6-(1-(pyrimidin-5-ylmethyl)-1H-pyrazol-4-yl)-3,4-dihydroquinoxalin-1(2H)-yl)ethanone] | 1000 to 10000 nM | < 50 nM | 100 to 500 nM | –
17 | CC(=O)N1c2ccc(-c3cnn(CCN(C)C)c3)cc2N(C(=O)OC(C)C)C[C@@H]1C [Example I-129, (S)-isopropyl 4-acetyl-7-(1-(2-(dimethylamino)ethyl)-1H-pyrazol-4-yl)-3-methyl-3,4-dihydroquinoxaline-1(2H)-carboxylate] | 1000 to 10000 nM | 50 to 500 nM | 100 to 500 nM | –
18 | CC(=O)N1c2ccc(-c3cnn(Cc4ccno4)c3)cc2N(C(=O)OC(C)C)C[C@@H]1C [Example I-131, (S)-isopropyl 4-acetyl-7-(1-(isoxazol-5-ylmethyl)-1H-pyrazol-4-yl)-3-methyl-3,4-dihydroquinoxaline-1(2H)-carboxylate] | 100 to 1000 nM | 50 to 500 nM | 100 to 500 nM | –
19 | CC(=O)N1c2ccc(-c3cnn(CC4(F)COC4)c3)cc2N(C(=O)OC(C)C)C[C@@H]1C [Example I-133, (S)-isopropyl 4-acetyl-7-(1-((3-fluorooxetan-3-yl)methyl)-1H-pyrazol-4-yl)-3-methyl-3,4-dihydroquinoxaline-1(2H)-carboxylate] | 100 to 1000 nM | 50 to 500 nM | 100 to 500 nM | –
